Data published in patent publication US8883778B2, “Cyclic inhibitors of 11 beta-hydroxysteroid dehydrogenase 1” (Vitae Pharmaceuticals, Inc., priority 2009, dated 2014).

Legend:
11β-HSD1 [1] = target: T1, 11β-HSD1 (Homo sapiens, UniProt P28845); assay: In vitro inhibition of 11β-HSD1 with HTRF technology, cortisol generated by human liver microsomes; assay type: biochemical; parameters: detecting cortisol generated from cortisterone by human liver microsomes; from tissue; host or cells: human liver microsomes; settings: 1 hour at 37° C., cortisone 80 nM
Description: Briefly, compounds were incubated for 1 hour at 37° C. in Tris buffer (20 mM tris, 5 mM EDTA, pH 6.0) containing NADPH (200 μM) and cortisone (80 nM). Cortisol generated in the reaction is then detected with a competitive immunoassay, involving two HTRF conjugates: cortisol linked to XL665 and anti-cortisol antibody labeled with Europium cryptate. The incubation period for detection reaction was typically 2 hours. The amount of cortisol was determined by reading the time-resolved fluorescence of the wells (Ex 320/75 nm; Em 615/8.5 nm and 665/7.5 nm). The ratio of the two emission signals was then calculated (Em665*10000/Em615). […] Each assay also contained a calibration curve with cortisol to transform the fluorescent data into cortisol concentrations. Percent inhibition of each compound was determined relative to the carbenoxolone signal.

11β-HSD1 [2] = target: T1, 11β-HSD1; assay: Inhibition of a microsomal preparation of 11β-HSD1, scintillation proximity assay; assay type: biochemical; parameters: expressed in transfected cells; host or cells: CHO cells (microsomes); settings: microsomes from CHO cells overexpressing human 11β-HSD1; for inhibition at 0.1 µM: at 100 nM
Description: All reactions were carried out at rt in 96 well clear flexible PET Microbeta plates (PerkinElmer). […] After a 10 minute pre-incubation, 50 μL of enzyme solution containing microsomes isolated from CHO cells overexpressing human 11β-HSD1 (10-20 μg/ml of total protein) was added, and the plates were incubated for 90 minutes at rt. The reaction was stopped by adding 50 μl of the SPA beads suspension containing 10 μM 18β-glycyrrhetinic acid, 5 mg/ml protein A coated YSi SPA beads (GE Healthcare) and 3.3 μg/ml of anti-cortisol antibody (East Coast Biologics) in Superblock buffer (Bio-Rad). The plates were shaken for 120 minutes at rt, and the SPA signal corresponding to [^3H]cortisol was measured on a Microbeta plate reader.

T1 sequence (P28845 whole entry): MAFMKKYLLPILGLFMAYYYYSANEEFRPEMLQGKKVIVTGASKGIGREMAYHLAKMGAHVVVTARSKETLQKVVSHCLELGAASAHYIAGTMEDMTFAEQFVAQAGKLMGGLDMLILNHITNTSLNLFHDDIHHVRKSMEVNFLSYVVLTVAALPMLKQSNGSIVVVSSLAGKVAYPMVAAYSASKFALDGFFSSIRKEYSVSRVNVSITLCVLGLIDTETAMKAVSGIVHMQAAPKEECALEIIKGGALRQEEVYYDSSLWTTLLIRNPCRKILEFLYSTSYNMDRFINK

SMILES: C[C@@H](c1ccc(C#Cc2ccn(C)c(=O)c2)cc1)N1CC[C@](CC(C)(C)O)(c2ccccc2)OC1=O [Example 30, (S)-6-(2-Hydroxy-2-methyl-propyl)-3-{(S)-1-[4-(1-methyl-2-oxo-1,2-dihydro-pyridin-4-ylethynyl)-phenyl]ethyl}-6-phenyl-[1,3]oxazinan-2-one]
- IC50 (11β-HSD1 [1]): 29 nM

SMILES: C[C@@H](c1ccc(C#Cc2ccc(=O)n(C)c2)cc1)N1CC[C@](CC(C)(C)O)(c2ccccc2)OC1=O [Example 31, (S)-6-(2-Hydroxy-2-methyl-propyl)-3-{(S)-1-[4-(1-methyl-6-oxo-1,6-dihydro-pyridin-3-ylethynyl)-phenyl]ethyl}-6-phenyl-[1,3]oxazinan-2-one]
- IC50 (11β-HSD1 [1]): 30 nM

SMILES: C=C(C)C[C@]1(c2ccccc2)CCN([C@@H](C)c2ccc(C#CC(C)(C)NS(C)(=O)=O)cc2)C(=O)O1 [Example 22, N-(2-methyl-4-(4-((S)-1-((R)-6-(2-methylallyl)-2-oxo-6-phenyl-1,3-oxazinan-3-yl)ethyl)phenyl)but-3-yn-2-yl)methanesulfonamide]
- inhibition at 0.1 µM (11β-HSD1 [2]): 93.6%
- IC50 (11β-HSD1 [2]): 1.8 nM

SMILES: COC(=O)NC(C)(C)C#Cc1ccc([C@H](C)N2CC[C@](CC(C)(C)O)(c3ccccc3)OC2=O)cc1 [Example 18, methyl 4-(4-((S)-1-((S)-6-(2-hydroxy-2-methylpropyl)-2-oxo-6-phenyl-1,3-oxazinan-3-yl)ethyl)phenyl)-2-methylbut-3-yn-2-ylcarbamate]
- inhibition at 0.1 µM (11β-HSD1 [2]): 94.5%
- IC50 (11β-HSD1 [2]): 3.7 nM
